{"source": "paper PMC12217544", "about": "(Scientific Reports, 2025)", "key": {"[1]": {"test": "in vitro", "conditions": "African green monkey, CC50, Vero E6 cells, crystal violet, 3 days"}, "[2]": {"tested_on": "A549 cells", "conditions": "MTT, ref [75]; cited from earlier work"}, "[3]": {"tested_on": "SARS-CoV-2", "conditions": "SARS-CoV-2, Vero E6; ref [76]; cited from earlier work"}, "[4]": {"tested_on": "A/Puerto Rico/8/1934 H1N1", "conditions": "A/Puerto Rico/8/1934 H1N1, quantitative real-time PCR; ref [75]; cited from earlier work"}, "[5]": {"tested_on": "Vero E6 cells", "conditions": "MTT assay, ref [76]; cited from earlier work"}}, "data": [{"compound": "Cc1ccc(C(C)C)c(O)c1", "note": "[Thymol]", "values": [{"measurement": "CC50", "setting": "[1]", "result": 63.3, "unit": "µg/mL"}, {"measurement": "half-maximal cytotoxic concentration", "setting": "[2]", "result": 49.4, "unit": "µg/mL"}, {"measurement": "viral inhibition percentage (plaque reduction)", "setting": "[3]", "result": 96, "unit": "%"}, {"measurement": "concentration that effectively reduced the viral titer", "setting": "[4]", "result": 25, "unit": "µg/mL"}, {"measurement": "CC50", "setting": "[5]", "result": 617, "unit": "µM"}]}]}
